The nature of data set [1]: LC-MS/MS of free butyrate in solution of fresh and aged SerBut. As for the experimental part:
To investigate stability, we repeated the experiment with SerBut in FBS-supplemented complete media stored for 1 month at 37°C (Figure 1B).
(B) LC-MS/MS analysis of free butyrate in solution of aged SerBut (incubated at 37°C in FBS-supplemented media for 1 month) and freshly dissolved SerBut and NaBut. (C) NF-κB activity of RAW Blue reporter cells upon treatment with the indicated concentrations of SerBut or NaBut for 24 hours followed by stimulation with 200 ng/mL LPS for 6 hours. (D–J) RAW 264.7 cells treated for 24 hours with the indicated concentrations of SerBut or NaBut followed by stimulation with 200 ng/mL LPS for 6 hours. (D–E) Mean fluorescence intensity (MFI) of iNOS^+ or CD80^+ RAW 264.7 cells analyzed by flow cytometry. (F–J) Cytokine concentrations in the cell culture supernatant of RAW 264.7 cells. “x” indicates untreated group. In A, n = 3 per group representing technical replicates. In B, n = 3 freshly prepared samples per 2 distinct experiments pooled for aged SerBut and NaBut groups, while fresh the SerBut group represents a single experiment. One sample in the aged SerBut group and 2 samples in the NaBut group were lost due to filtering malfunctions or LC-MS/MS autosampling malfunctions. In C, n = 6 technical replicates. Data represent mean ± SEM. […] In A, 2-way ANOVA was performed.
(§1) Samples were prepared and derivatized as described previously ([28]). Stock solutions were prepared in water/acetonitrile (ACN) (1:1 v/v): 3-nitrophenylhydrazine (NPH), and 1-ethyl-3-(3-dimethylaminopropyl)carbodiimide (EDC) (in 1% pyridine). The internal standard, 4-methylvaleric acid, was added. Samples were mixed with NPH and EDC stocks at a 1:1:1 volume ratio. The mixture was heated in a heating block at 60°C for 30 minutes. Samples were filtered through 0.22 μm filters and stored at 4°C before analysis.
Both derivatized butyrate-NPH and 4-methylvaleric-NPH were detected in negative mode. Column: Thermo Fisher Scientific C18 4.6 × 50 mm, 1.8 μm particle size, at room temperature. Mobile phase A: water with 0.1% v/v formic acid. Mobile phase B: ACN with 0.1% v/v formic acid. Injection volume: 5.0 μL. Flow rate: 0.5 mL/min. […] The MS conditions were optimized using pure butyrate-NPH or 4-methylvaleric-NPH at 1 mM. […] The ratio between MRM of butyrate and 4-methylvaleric acid was used to quantify butyrate concentration.

Data set [2] is described as follows: Biodistribution of free butyrate after oral gavage, ApoE–/– mice on HFD. As for the experimental part:
as §1
An Agilent 6460 Triple Quad MS-MS was used to detect the derivatized butyrate. Both derivatized butyrate-NPH and 4-methylvaleric-NPH were detected in negative mode. Column: Thermo Fisher Scientific C18 4.6 × 50 mm, 1.8 μm particle size, at room temperature. Mobile phase A: water with 0.1% v/v formic acid. Mobile phase B: ACN with 0.1% v/v formic acid. Injection volume: 5.0 μL. Flow rate: 0.5 mL/min. Gradient of solvent: 15% mobile phase B at 0.0 minutes; 100% mobile phase B at 3.5 minutes; 100% mobile phase B at 6.0 minutes; 15% mobile phase B at 6.5 minutes. The MS conditions were optimized using pure butyrate-NPH or 4-methylvaleric-NPH at 1 mM. The fragment voltage was set to 135 V, and the collision energy was 18 V. Multiple reaction monitoring (MRM) of 222 → 137 was assigned to butyrate, and MRM of 250 → 137 was assigned to 4-methylvaleric acid as the internal standard. The ratio between MRM of butyrate and 4-methylvaleric acid was used to quantify butyrate concentration.
Three hours after administration, mice were anesthetized under isoflurane, and blood was collected via submandibular vein into EDTA-coated tubes. The tubes were centrifuged, and plasma was collected and frozen at –80°C. […] Organs, including liver, MLNs, ILNs, spleen, lung, heart, aorta, small intestine, and large intestine were collected and then transferred to –80°C until further processing. To extract butyrate from plasma or organs, a 1:1 (v/v) ACN/water solution was used. Plasma was mixed 1:1 with the ACN/water solution and centrifuged to remove denatured proteins. Organs were weighed, transferred to Lysing Matrix D tubes (MP Biomedicals), and combined with the 1:1 v/v ACN/water solution. Samples were then lysed using a FastPrep-24 5G homogenizer (MP Biomedicals) and centrifuged. The supernatants were collected for butyrate measurement by LC-MS/MS. The final butyrate content in each organ was normalized by organ weight.

A further data set has as its system ApoE^–/– mice on an HFD. Briefly: Flow cytometry of blood, lymph nodes and spleen. Type of data set: in vivo, mouse. Details: Treg / Th17 / F480+CD11b+ Macrophages / iNOS+ Macs / Arg1+ Macs: unit not given here. The following applies: for Arg1+ Macs / F480+CD11b+ Macrophages / Th17 / Th17/Treg / Treg / iNOS+ Macs / Blood Neutrophils: CD11b+Ly6G+ %CD45: individual mice. Here is the method: SerBut water was pH adjusted using 10 M NaOH to a final pH of 7.4. […] After 6 weeks, mice were euthanized. The lMLNs, ILNs, spleen, heart, and aorta were harvested and processed for flow cytometry analysis ([67]). […] The remaining liver was fixed with 4% paraformaldehyde and embedded in paraffin for histological analysis.
Flow cytometry was performed using a BD LSRFortessa or a Cytek Aurora full-spectrum cytometer.

“And” between values parts separate entries of the source, which are not always exact repeats. Equal entries are not always repeated.

Consider `CCCC(=O)[O-].[Na+]` [NaBut, sodium butyrate, reference compound], for which the “Butyrate Release by LCMS-MS (free butyrate)” value in data set [1] (freshly dissolved) was 2.185 and 1.975 and 1.35 and 1.426. The “free butyrate, Plasma” value in data set [2] (3 hours after single gavage of 272 mM butyrate) worked out at 4.575 µM. Besides, in the data set on ApoE^–/– mice on an HFD (Inguinal Lymph Node Flow), the “Arg1+ Macs” value is 1.5 and 2.34 and 2.81 and 2.38; the “F480+CD11b+ Macrophages” value was 0.62 and 0.34 and 0.21 and 0.27; the Th17 was 4.92 and 5.5 and 5.4 and 13 and 8.24 and 3.69 and 4.14 and 8.43 and 4.57 and 3.89; the Th17/Treg is 0.4278 and 0.4365 and 0.4463 and 1.161 and 0.7423 and 0.2976 and 0.345 and 0.4153 and 0.3288 and 0.2701. In the data set with ApoE^–/– mice on an HFD (Inguinal Lymph Node Flow), the Treg was 11.5 and 12.6 and 12.1 and 11.2 and 11.1 and 12.4 and 12 and 20.3 and 13.9 and 14.4; the “iNOS+ Macs” value is 2.2 and 5.7 and 2.33 and 5.26. In the data set with ApoE^–/– mice on an HFD (Mesenteric Lymph Node Flow), the “Arg1+ Macs” value is 1.44 and 1.98 and 1.72 and 1.71; the “F480+CD11b+ Macrophages” value is 11.6 and 5.7 and 6.38 and 10.4; the Th17 was 11.7 and 14.4 and 12.2 and 12.1 and 11.3 and 18.4 and 15.3; the Th17/Treg is 1.054 and 1.385 and 0.8652 and 1.008 and 0.8968 and 1.108 and 0.8895. In the data set with ApoE^–/– mice on an HFD (Mesenteric Lymph Node Flow), the Treg is 11.1 and 10.4 and 14.1 and 12 and 12.6 and 16.6 and 17.2; the “iNOS+ Macs” value is 2.42 and 0.43 and 0.69 and 0.94. In addition, in the data set on ApoE^–/– mice on an HFD (Spleen Flow), the Th17 is 1.11 and 0.85 and 1.17 and 1.19 and 1.09 and 1.43 and 1.41 and 1.08 and 1.22 and 0.97; the Th17/Treg was 0.1535 and 0.1111 and 0.1425 and 0.1357 and 0.131 and 0.1783 and 0.1653 and 0.135 and 0.1432 and 0.1325; the Treg is 7.23 and 7.65 and 8.21 and 8.77 and 8.32 and 8.02 and 8.53 and 8 and 8.52 and 7.32. Further, the “Blood Neutrophils: CD11b+Ly6G+ %CD45” value in the data set with ApoE^–/– mice on an HFD is 7.65 %CD45 and 9.07 %CD45 and 17.4 %CD45 and 8.36 %CD45 and 14.3 %CD45 and 19.3 %CD45 and 20.8 %CD45 and 17.3 %CD45 and 19.5 %CD45 and 14.8 %CD45 and 22.8 %CD45 and 4.26 %CD45 and 16.8 %CD45. The “Th17/Treg cell ratio” value with ApoE^–/– mice on an HFD (spleen) is “lower Th17/Treg cell ratio”.
As for `CCCC(=O)OC[C@H](N)C(=O)O` [SerBut, O-butyryl-L-serine], the “relative concentration of free butyrate on storage” value in data set [1] (FBS-supplemented complete media, 1 month at 37°C) is reported as “did not change”. The “Butyrate Release by LCMS-MS (free butyrate)” value in data set [1] (aged: 37°C in FBS-supplemented media for 1 month, listed as Aged SerBut) is 0.457 and 0.4771 and 0.4543 and 0.3155 and 0.3079. In addition, the “share of sample that was free butyrate” value in data set [1] (at the time of measurement) is “approximately 10%”. For the same molecule, the “Butyrate Release by LCMS-MS (free butyrate)” value in data set [1] (freshly dissolved) was 0.483 and 0.4832 and 0.4596. In data set [2] (3 hours after gavage), the “free butyrate in liver, ILNs, kidney, spleen, lung and plasma” value is on record as “significant increases”; the “free butyrate in the MLNs” value was “trending increases”. Moreover, the “free butyrate in the heart and aorta” value in data set [2] (3 hours after gavage, compared with both NaBut-treated and PBS-treated mice) is on record as “significantly increased free butyrate”. For the same molecule, the “frequency of circulating Ly6G^+CD11b^+ neutrophils” value with ApoE^–/– mice on an HFD (6 weeks, compared with both NaBut- and water-treated controls) was “significantly reduced”. In the data set with ApoE^–/– mice on an HFD (Inguinal Lymph Node Flow), the “Arg1+ Macs” value was 3.53 and 2.72 and 2.64 and 3.19 and 3.9 and 5.62 and 3.61 and 5.94 and 4.82 and 4.83 and 3.4 and 2.08 and 3.78 and 5.04; the “F480+CD11b+ Macrophages” value is 0.56 and 0.54 and 0.36 and 0.83 and 0.61 and 1.4 and 0.33 and 0.64 and 0.46 and 0.86 and 0.43 and 0.29; the Th17 was 7.49 and 5.92 and 1.67 and 2.37 and 3.33 and 2.23 and 8.03 and 16.8 and 2.7; the Th17/Treg is 0.5095 and 0.3947 and 0.09489 and 0.1274 and 0.2068 and 0.1161 and 0.4294 and 1.037 and 0.1588. Besides, in the data set on ApoE^–/– mice on an HFD (Inguinal Lymph Node Flow), the Treg is 14.7 and 15 and 17.6 and 18.6 and 16.1 and 19.2 and 18.7 and 16.2 and 17; the “iNOS+ Macs” value was 5.43 and 3.21 and 3.87 and 2.26 and 2.24 and 2.49 and 6.09 and 2.15 and 4.59 and 2.91 and 7.23 and 2.89 and 7.07 and 5.7. Also, in the data set on ApoE^–/– mice on an HFD (MLNs and spleen), the “Th17/Treg cell ratio” value is recorded as “reduced the Th17/Treg cell ratio”. For the same molecule, the “iNOS^+ of CD11b^+F480^+ macrophages” value in the data set on ApoE^–/– mice on an HFD (MLNs, not ILNs, compared with controls, but not NaBut-treated mice) is “significantly decreased”. Besides, the “regulatory T cells” value with ApoE^–/– mice on an HFD (MLNs, not skin-draining lymph nodes or spleen) was “expanded”. In addition, in the data set with ApoE^–/– mice on an HFD (Mesenteric Lymph Node Flow), the “Arg1+ Macs” value was 3.56 and 1.85 and 2.39 and 1.1 and 1.07 and 1.12 and 0.97 and 1.19 and 1.91 and 0.93 and 1.08 and 1.16 and 0.95; the “F480+CD11b+ Macrophages” value was 5.85 and 7.28 and 6.98 and 8.63 and 11.2 and 7.11 and 5.47 and 7.35 and 5.84 and 3.45 and 4.72 and 5.77 and 7.09; the Th17 is 7.78 and 13.7 and 14.7 and 8.43 and 9.66 and 19.2 and 12; the Th17/Treg was 0.5329 and 0.6372 and 0.9423 and 0.493 and 0.6114 and 1.091 and 0.7843. Further, in the data set with ApoE^–/– mice on an HFD (Mesenteric Lymph Node Flow), the Treg is 14.6 and 21.5 and 15.6 and 17.1 and 15.8 and 17.6 and 15.3; the “iNOS+ Macs” value is 0.64 and 1 and 0.46 and 0.71 and 0.58 and 0.74 and 0.6 and 0.68 and 1.54 and 0.88 and 0.65 and 0.69. Moreover, in the data set with ApoE^–/– mice on an HFD (Spleen Flow), the Th17 was 0.83 and 1.07 and 1.3 and 0.97 and 1.12 and 1.08 and 1 and 1.34; the Th17/Treg was 0.115 and 0.1219 and 0.1671 and 0.1127 and 0.16 and 0.145 and 0.1264 and 0.1603; the Treg is 7.22 and 8.78 and 7.78 and 8.61 and 7 and 7.45 and 7.91 and 8.36. Moreover, in the data set with ApoE^–/– mice on an HFD, the “Blood Neutrophils: CD11b+Ly6G+ %CD45” value is 12.2 %CD45 and 10.2 %CD45 and 11.9 %CD45 and 16 %CD45 and 15.3 %CD45 and 6.9 %CD45 and 6.35 %CD45 and 13.7 %CD45 and 8 %CD45 and 10.6 %CD45 and 17.9 %CD45 and 2.21 %CD45 and 2.25 %CD45 and 7.63 %CD45.

These data come from article PMC12333940, “A prometabolite strategy inhibits cardiometabolic disease in an ApoE^–/– murine model of atherosclerosis” (JCI Insight, 2025).
